Patent publication EP3046573B1, “AMYLIN ANALOGUES” (Zealand Pharma A/S, priority 2013, dated 2015)
Where two headings read alike, the source gives them in different places. Numbered stars: 1 amine (or outer) side, 2 acyl side, 3 side chain; on linkers, the order of the positions; unused ones are H or OH. Bridge positions count the residues as written; N and C are the ends. Square brackets hold non-standard residues; d marks the D form. Peptide text beside a SMILES is read from it. * marks the point of attachment. C20 diacid = O=C(O)CCCCCCCCCCCCCCCCCCC(=O)*; γGlu = O=C(O)[C@H](CCC(=O)[*:2])N[*:1]; NMeY = CN[C@@H](Cc1ccc(O)cc1)C(=O)O; NMeI = CC[C@H](C)[C@H](NC)C(=O)O; Sar = CNCC(=O)O

How the values were obtained:
[1] = Solubility assessment (turbidity absorbance at 325 nm); assay type: physicochemical; details: stock 2 mg/ml diluted 1:1, ambient temperature (typically 25°C), n=1; for Solubility, Acetate buffer pH 4: 100 mM acetate buffer pH 4.0; for Solubility, Acetate buffer pH 5: 100 mM acetate buffer pH 5.0; for Solubility, Histidine buffer pH 6: 100 mM histidine buffer pH 6.0; for Solubility, Histidine buffer pH 7: 100 mM histidine buffer pH 7.0; for Solubility, Phosphate buffer pH 6: 100 mM phosphate buffer pH 6.0; for Solubility, Phosphate buffer pH 7: 100 mM phosphate buffer pH 7.0; for Solubility, Phosphate buffer pH 7.5: 100 mM phosphate buffer pH7.5
Outline: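 Peptide stock (2 mg/ml) in water acidified to pH 2.5 with HCl was diluted 1:1 into 100 mM acetate (pH 4.0, 5.0), histidine (pH 6.0, 7.0) or phosphate (pH 6.0, 7.0, 7.5) buffer. A280 and A325 were read at about 25°C, n=1. A325 ≤ 0.02 meant solubility ≥ 1 mg/ml.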

[2] = biological target: T1, human calcitonin receptor (hCTR2) (Homo sapiens, UniProt P30988); experiment: hCTR2 assay: induction of cAMP (AlphaScreen cAMP Assay kit) in COS7 cells expressing hCTR2; assay type: cell-based
T1 construct: expressed in transfected cells
T1 sequence (P30988 25-474): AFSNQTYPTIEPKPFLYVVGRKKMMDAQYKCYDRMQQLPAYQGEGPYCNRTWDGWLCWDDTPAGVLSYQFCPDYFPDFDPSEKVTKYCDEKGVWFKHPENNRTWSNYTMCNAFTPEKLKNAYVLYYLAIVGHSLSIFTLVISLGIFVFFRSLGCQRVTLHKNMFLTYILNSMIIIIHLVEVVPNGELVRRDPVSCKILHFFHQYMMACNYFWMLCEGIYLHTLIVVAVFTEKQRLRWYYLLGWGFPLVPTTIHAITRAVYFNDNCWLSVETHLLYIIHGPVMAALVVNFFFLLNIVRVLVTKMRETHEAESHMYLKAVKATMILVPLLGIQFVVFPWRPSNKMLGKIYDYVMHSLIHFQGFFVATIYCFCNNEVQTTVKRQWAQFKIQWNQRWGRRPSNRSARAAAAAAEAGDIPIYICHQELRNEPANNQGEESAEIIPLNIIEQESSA
Outline: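 Stable RAMP-naive COS7 clone expressing hCTR2 was stimulated with increasing peptide concentrations in Tyrode buffer (pH 7.4) with 100 µM IBMX and 0.1% casein for 15 min at 37° C. Cells were lysed and cAMP measured by AlphaScreen. EC50 and efficacy relative to pramlintide came from 4PL curve fits.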

[3] = cAMP induction in COS7 cells expressing hCTR2, average of a minimum of 3 determinations, read-out: hCTR2 EC50

Structure (SMILES) | Solubility, Acetate buffer pH 4 [1] | Solubility, Acetate buffer pH 5 [1] | Solubility, Histidine buffer pH 6 [1] | Solubility, Histidine buffer pH 7 [1] | Solubility, Phosphate buffer pH 6 [1] | Solubility, Phosphate buffer pH 7 [1] | Solubility, Phosphate buffer pH 7.5 [1] | EC50 [2, 3] | EC50 [2]
CC[C@H](C)[C@@H](C(=O)N[C@@H](CC(C)C)C(=O)N[C@@H](CO)C(=O)N[C@@H](CO)C(=O)N[C@H](C(=O)N[C@@H](CC(N)=O)C(=O)N[C@H](C(=O)NCC(=O)N[C@@H](CO)C(=O)N[C@@H](CC(N)=O)C(=O)N[C@H](C(=O)N1CCC[C@H]1C(N)=O)[C@@H](C)O)C(C)C)[C@@H](C)O)N(C)C(=O)CN(C)C(=O)[C@H](Cc1ccccc1)NC(=O)[C@H](CC(N)=O)NC(=O)[C@H](CC(N)=O)NC(=O)[C@H](CO)NC(=O)[C@H](CO)NC(=O)[C@H](CCCNC(=N)N)NC(=O)[C@H](Cc1c[nH]cn1)NC(=O)[C@H](CC(C)C)NC(=O)[C@H](Cc1ccccc1)NC(=O)[C@H](CCC(=O)O)NC(=O)[C@H](C)NC(=O)[C@H](CC(C)C)NC(=O)[C@H](CCCNC(=N)N)NC(=O)[C@H](CCC(N)=O)NC(=O)[C@@H](NC(=O)[C@H](C)NC(=O)[C@@H]1CSSC[C@H](NC(=O)[C@H](CCCCN)NC(=O)CC[C@H](NC(=O)CCCCCCCCCCCCCCCCCCC(=O)O)C(=O)O)C(=O)N[C@@H](CC(N)=O)C(=O)N[C@@H]([C@@H](C)O)C(=O)N[C@@H](C)C(=O)N[C@@H]([C@@H](C)O)C(=O)N1)[C@@H](C)O [Compound 58, [19CD]-isoGlu-KC()NTATC()ATQRLAEFLHRSSNNF-Gly(Me)-Ile(Me)-LSSTNVGSNTP-NH2] ({C20 diacid-γGlu}-KCNTATCATQRLAEFLHRSSNNF[Sar][NMeI]LSSTNVGSNTP-NH2; disulfide 2-7) | SS (SS indicates solubility ≥ 1mg/ml) | SS (SS indicates solubility ≥ 1mg/ml) | SS (SS indicates solubility ≥ 1mg/ml) | SS (SS indicates solubility ≥ 1mg/ml) | SS (SS indicates solubility ≥ 1mg/ml) | II (II indicates solubility ≤ 1 mg/ml) | SS (SS indicates solubility ≥ 1mg/ml) | 0.11 nM | –
CC[C@H](C)[C@@H](C(=O)N[C@@H](CC(C)C)C(=O)N[C@H](CO)C(=O)N[C@@H](CO)C(=O)N[C@H](C(=O)N[C@@H](CC(N)=O)C(=O)N[C@H](C(=O)NCC(=O)N[C@@H](CO)C(=O)N[C@@H](CC(N)=O)C(=O)N[C@H](C(=O)N1CCC[C@H]1C(N)=O)[C@@H](C)O)C(C)C)[C@@H](C)O)N(C)C(=O)[C@H](C)NC(=O)CN(C)C(=O)[C@@H](Cc1ccccc1)NC(=O)[C@H](CC(N)=O)NC(=O)[C@H](CC(N)=O)NC(=O)[C@H](CO)NC(=O)[C@H](CO)NC(=O)[C@H](Cc1c[nH]cn1)NC(=O)[C@H](Cc1c[nH]cn1)NC(=O)[C@H](CC(C)C)NC(=O)[C@H](Cc1ccccc1)NC(=O)[C@H](CCC(=O)O)NC(=O)[C@H](C)NC(=O)[C@H](CC(C)C)NC(=O)[C@H](CCCNC(=N)N)NC(=O)[C@H](CCC(N)=O)NC(=O)[C@@H](NC(=O)[C@H](C)NC(=O)[C@@H]1CSSC[C@H](NC(=O)[C@H](CCCNC(=N)N)NC(=O)CC[C@H](NC(=O)CCCCCCCCCCCCCCCCCCC(=O)O)C(=O)O)C(=O)N[C@@H](CC(N)=O)C(=O)N[C@@H]([C@@H](C)O)C(=O)N[C@@H](C)C(=O)N[C@@H]([C@@H](C)O)C(=O)N1)[C@@H](C)O [Compound 59, [19CD]-isoGlu-RC()NTATC()ATQRLAEFLHHSSNN-DPhe-Gly(Me)-A-Ile(Me)-L-DSer-STNVGSNTP-NH2] ({C20 diacid-γGlu}-RCNTATCATQRLAEFLHHSSNN[dF][Sar]A[NMeI]L[dS]STNVGSNTP-NH2; disulfide 2-7) | SS (SS indicates solubility ≥ 1mg/ml) | SS (SS indicates solubility ≥ 1mg/ml) | SS (SS indicates solubility ≥ 1mg/ml) | SS (SS indicates solubility ≥ 1mg/ml) | SS (SS indicates solubility ≥ 1mg/ml) | II (II indicates solubility ≤ 1 mg/ml) | SS (SS indicates solubility ≥ 1mg/ml) | – | 0.14 nM
CC[C@H](C)[C@@H](C(=O)N[C@@H](CC(C)C)C(=O)N[C@H](CO)C(=O)N[C@@H](CO)C(=O)N[C@H](C(=O)N[C@@H](CC(N)=O)C(=O)N[C@H](C(=O)NCC(=O)N[C@@H](CO)C(=O)N[C@@H](CC(N)=O)C(=O)N[C@H](C(=O)N1CCC[C@H]1C(N)=O)[C@@H](C)O)C(C)C)[C@@H](C)O)N(C)C(=O)CN(C)C(=O)[C@@H](Cc1ccccc1)NC(=O)[C@H](CC(N)=O)NC(=O)[C@H](CC(N)=O)NC(=O)[C@H](CO)NC(=O)[C@H](CO)NC(=O)[C@H](Cc1c[nH]cn1)NC(=O)[C@H](Cc1c[nH]cn1)NC(=O)[C@H](CC(C)C)NC(=O)[C@H](Cc1ccccc1)NC(=O)[C@H](CCC(=O)O)NC(=O)[C@H](C)NC(=O)[C@H](CC(C)C)NC(=O)[C@H](CCCNC(=N)N)NC(=O)[C@H](CCC(N)=O)NC(=O)[C@@H](NC(=O)[C@H](C)NC(=O)[C@@H]1CSSC[C@H](NC(=O)[C@H](CCCNC(=N)N)NC(=O)CC[C@H](NC(=O)CCCCCCCCCCCCCCCCCCC(=O)O)C(=O)O)C(=O)N[C@@H](CC(N)=O)C(=O)N[C@@H]([C@@H](C)O)C(=O)N[C@@H](C)C(=O)N[C@@H]([C@@H](C)O)C(=O)N1)[C@@H](C)O [Compound 60, [19CD]-isoGlu-RC()NTATC()ATQRLAEFLHHSSNN-DPhe-Gly(Me)-Ile(Me)-L-DSer-STNVGSNTP-NH2] ({C20 diacid-γGlu}-RCNTATCATQRLAEFLHHSSNN[dF][Sar][NMeI]L[dS]STNVGSNTP-NH2; disulfide 2-7) | SS (SS indicates solubility ≥ 1mg/ml) | SS (SS indicates solubility ≥ 1mg/ml) | SS (SS indicates solubility ≥ 1mg/ml) | SS (SS indicates solubility ≥ 1mg/ml) | SS (SS indicates solubility ≥ 1mg/ml) | II (II indicates solubility ≤ 1 mg/ml) | SS (SS indicates solubility ≥ 1mg/ml) | 0.12 nM | –
CC[C@H](C)[C@@H](C(=O)N[C@@H](CC(C)C)C(=O)N[C@@H](CO)C(=O)N[C@@H](CO)C(=O)N[C@H](C(=O)N[C@@H](CC(N)=O)C(=O)N[C@H](C(=O)NCC(=O)N[C@@H](CO)C(=O)N[C@@H](CC(N)=O)C(=O)N[C@H](C(=O)N(C)[C@@H](Cc1ccc(O)cc1)C(N)=O)[C@@H](C)O)C(C)C)[C@@H](C)O)N(C)C(=O)CN(C)C(=O)[C@H](Cc1ccccc1)NC(=O)[C@H](CC(N)=O)NC(=O)[C@H](CC(N)=O)NC(=O)[C@H](CO)NC(=O)[C@H](CO)NC(=O)[C@H](Cc1c[nH]cn1)NC(=O)[C@H](Cc1c[nH]cn1)NC(=O)[C@H](CC(C)C)NC(=O)[C@H](Cc1ccccc1)NC(=O)[C@H](CCC(=O)O)NC(=O)[C@H](C)NC(=O)[C@H](CC(C)C)NC(=O)[C@H](CCCNC(=N)N)NC(=O)[C@H](CCC(N)=O)NC(=O)[C@@H](NC(=O)[C@H](C)NC(=O)[C@@H]1CSSC[C@H](NC(=O)[C@H](CCCNC(=N)N)NC(=O)CC[C@H](NC(=O)CCCCCCCCCCCCCCCCCCC(=O)O)C(=O)O)C(=O)N[C@@H](CC(N)=O)C(=O)N[C@@H]([C@@H](C)O)C(=O)N[C@@H](C)C(=O)N[C@@H]([C@@H](C)O)C(=O)N1)[C@@H](C)O [Compound 62, [19CD]-isoGlu-RC()NTATC()ATQRLAEFLHHSSNNF-Gly(Me)-Ile(Me)-LSSTNVGSNT-Tyr(Me)-NH2] ({C20 diacid-γGlu}-RCNTATCATQRLAEFLHHSSNNF[Sar][NMeI]LSSTNVGSNT[NMeY]-NH2; disulfide 2-7) | SS (SS indicates solubility ≥ 1mg/ml) | II (II indicates solubility ≤ 1 mg/ml) | II (II indicates solubility ≤ 1 mg/ml) | II (II indicates solubility ≤ 1 mg/ml) | II (II indicates solubility ≤ 1 mg/ml) | II (II indicates solubility ≤ 1 mg/ml) | II (II indicates solubility ≤ 1 mg/ml) | 0.37 nM | –
